Reference: article PMC3714011 (Journal of medicinal chemistry, 2013)
One block for each molecule: values may come before it.

Tests used:
HDFa = assay: [3H]-thymidine incorporation assay, HDFa; format: cell-based; details: Homo sapiens, read-out: Inhibition of Cell Proliferation (EC50, μM) HDFa
HsMetAP1 [1] = target: T1, HsMetAP1 (Homo sapiens, UniProt P53582); assay: ProIP-coupled MetAP activity assay, HsMetAP1 with Co; format: biochemical
[2] = tested on: iMet processing of 14-3-3γ in HUVEC; details: for signal of unprocessed 14-3-3γ in the presence of cycloheximide: HUVEC treated with cycloheximide prior to MetAP inhibitor
HsMetAP2 = HsMetAP2 (Homo sapiens, UniProt P50579); assay: ProIP-coupled MetAP activity assay, HsMetAP2 with Mn; format: biochemical
Chain of HsMetAP2 (P50579 whole entry): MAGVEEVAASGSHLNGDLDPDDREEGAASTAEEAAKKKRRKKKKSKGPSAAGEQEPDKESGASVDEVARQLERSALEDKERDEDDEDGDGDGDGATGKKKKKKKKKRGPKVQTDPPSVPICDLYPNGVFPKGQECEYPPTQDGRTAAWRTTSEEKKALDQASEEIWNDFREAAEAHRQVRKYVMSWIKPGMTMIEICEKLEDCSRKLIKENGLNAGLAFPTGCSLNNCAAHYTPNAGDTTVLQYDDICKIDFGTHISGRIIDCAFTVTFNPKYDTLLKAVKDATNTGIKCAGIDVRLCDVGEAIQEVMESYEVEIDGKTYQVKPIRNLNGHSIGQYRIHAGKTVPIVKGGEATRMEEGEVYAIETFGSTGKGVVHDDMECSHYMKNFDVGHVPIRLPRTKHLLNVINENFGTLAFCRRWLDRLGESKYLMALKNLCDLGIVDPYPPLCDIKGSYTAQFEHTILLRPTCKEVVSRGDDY

[3] = tested on: initiator methionine of BTF3L4 in HEK293T cells; assay: Initiator methionine release assay, BTF3L4-3×Flag in HEK293T cells; format: cell-based, human; details: 10 μM 11j, 100 nM TNP-470
[4] = tested on: initiator methionine of TXNL1 in HEK293T cells; assay: Initiator methionine release assay, TXNL1-3×Flag in HEK293T cells; format: cell-based, human; details: 10 μM
[5] = patients with advanced cancer; cited from earlier work
Escherichia coli = details: at concentrations up to 1 mM; ref 46b; cited from earlier work
HsMetAP1 [6] = target: T1, HsMetAP1; assay: LAO and HRP-coupled MetAP activity assay, HsMetAP1 with Zn; format: biochemical; details: concentrations up to 250 μM, Figure S3E
[7] = tested on: iMet processing of 14-3-3γ in HDFa cells; details: 3–250 μM, 24 hours
[8] = tested on: Jurkat E6-1, HeLa, HEK293T, PC-3 and MCF-7; assay: iMet processing of 14-3-3γ by immunoblot in five neoplastic cell lines; format: cell-based, human; details: all five neoplastic cell lines, 100 nM, 24 hours
[9] = Solubility observed at highest doses tested in the proliferation assay; details: 90 μM for 2, 40 μM for 3 and 40 μM for 4

SMILES: c1ccc(-c2ccccn2)nc1 [2,2′-Bipyridine, 2,2′-bipyridine]
EC50 (HDFa): 10 to 30 µM
inhibition at 100 µM (HsMetAP1 [1]; read-out: inhibition of the activity of HsMetAP1 in the absence of Co(II)): ≤ 30%
ability to block the NME of 14-3-3γ in cells, lower than 11j ([2]; Figure 6B): at least 30 times

inhibitory activity against HsMetAP1 in the presence of Mn(II) / absence of Co(II) (HsMetAP1 [1]; 10 μM Mn(II)): completely lost the inhibitory activity
SMILES: Clc1nc(-c2ccccn2)nc2ccccc12 [7a, 4-Chloro-2-(pyridin-2-yl)quinazoline]

IC50 (HsMetAP1 [1]): 24 µM
inhibitory activity against HsMetAP1 in the presence of Mn(II) / absence of Co(II) (HsMetAP1 [1]; 10 μM Mn(II)): could completely inhibit HsMetAP1
SMILES: c1ccc(CCNc2nc(-c3ccccn3)nc3ccccc23)cc1 [10a, N-Phenethyl-2-(pyridin-2-yl)quinazolin-4-amine]

inhibitory activity against HsMetAP1 in the presence of Mn(II) / absence of Co(II) (HsMetAP1 [1]; 10 μM Mn(II)): completely lost the inhibitory activity
SMILES: c1ccc(NCCNc2nc(-c3ccccn3)nc3ccccc23)cc1 [10b, N^1-Phenyl-N^2-[2-(pyridin-2-yl)quinazolin-4-yl]ethane-1,2-diamine]

EC50 (HsMetAP2): > 300 µM
increase in potency against HsMetAP1 with Co(II) compared with 10a (HsMetAP1 [1]): 7.8 fold
EC50 (HsMetAP1 [1]; EC50 (μM) HsMetAP1 Co(II), Table 2, 10 μM Co(II), mean ± SD of at least three determinations): 0.12 ± 0.02 µM
EC50 (HsMetAP1 [1]; EC50 (μM) HsMetAP1 Mn(II), Table 2, 10 μM Mn(II), mean ± SD): 5.3 ± 0.7 µM
increase in potency against HsMetAP1 with Mn(II) compared with 10a (HsMetAP1 [1]; Mn(II)): 4.5 fold
SMILES: c1ccc(-c2nc(NCCc3c[nH]c4ccccc34)c3ccccc3n2)nc1 [10c, N-[2-(1H-indol-3-yl)ethyl]-2-(pyridin-2-yl)quinazolin-4-amine]

EC50 (HsMetAP1 [1]; EC50 (μM) HsMetAP1 Mn(II), Table 3, 10 μM Mn(II), mean ± SD): > 100 µM
SMILES: O=C(O)COc1ccc(N2CCN(c3nc(-c4ccccn4)nc4ccccc34)CC2)cc1 [11e, 2-(4-{4-[2-(Pyridin-2-yl)quinazolin-4-yl]piperazin-1-yl}phenoxy)acetic acid]

SMILES: COc1ccc(N2CCN(c3nc(-c4ccccn4)nc4ccccc34)CC2)cc1 [11j, 4-[4-(4-Methoxyphenyl)piperazin-1-yl]-2-(pyridin-2-yl)quinazoline]
iMet retention of BTF3L4-3×Flag [3]: no appreciable increase
increase of the release of [35S]-Met from TXNL1-3×Flag, more than the vehicle [4]: 40 ± 17%
signal of unprocessed 14-3-3γ in the presence of cycloheximide [2]: none of the MetAP inhibitors could generate a detectable signal
level of unprocessed 14-3-3γ over time ([2]; HUVEC, 10 μM, 1–7 hours): increased in a time-dependent manner

SMILES: CO[C@@H](C(=O)N[C@H]1CC[C@@H](OC(=O)C2CCCCC2)CNC1=O)[C@H](O)[C@@H](O)[C@H](O)/C=C/C(C)(C)C [LAF-389]
reason for termination of the clinical study [5]: cardiovascular toxicity

SMILES: CO[C@@H]1[C@H](OC(=O)NC(=O)CCl)CC[C@]2(CO2)[C@H]1[C@@]1(C)O[C@@H]1CC=C(C)C [TNP-470]
iMet retention of BTF3L4-3×Flag [3]: no appreciable increase
signal of unprocessed 14-3-3γ in the presence of cycloheximide [2]: none of the MetAP inhibitors could generate a detectable signal

inhibition of HsMetAP1 in the absence of Co(II) (HsMetAP1 [6]): failed to inhibit
SMILES: c1ccc2[nH]c(-c3cscn3)nc2c1 [Thiabendazole, 4-(1H-1,3-benzodiazol-2-yl)-1,3-thiazole]
activity against the growth of Escherichia coli (Escherichia coli): inactive
effect on the NME of 14-3-3γ ([2]; HUVEC, 3–250 μM, 24 hours): did not affect
effect on the NME of 14-3-3γ [7]: did not affect

SMILES: CCCCCCCCCCCCCC(=O)O[C@H]1CC[C@H](NC(=O)[C@H](OC)[C@H](O)[C@@H](O)[C@H](O)/C=C/C(C)C)C(=O)NC1 [bengamide A]
increase in ratio of unprocessed versus total 14-3-3γ [8]: no more than 2.6 fold
signal of unprocessed 14-3-3γ in the presence of cycloheximide [2]: none of the MetAP inhibitors could generate a detectable signal
increase in ratio of unprocessed 14-3-3γ versus total 14-3-3γ ([2]; HUVEC, 24-hour treatment, 100 nM, Figure 2A): 8 fold
concentration of maximal response of accumulation of unprocessed 14-3-3γ ([2]; HUVEC, data not shown): around 10 nM

SMILES: Cc1nc(-c2ccccn2)nc(NCCc2ccccc2)c1Cl [compound 2, 5-chloro-6-methyl-N-(2-phenylethyl)-2-pyridin-2-ylpyrimidine-4-amine]
increase in ratio when TNP-470 was supplemented ([2]; HUVEC treated with 30 μM compound 2 plus TNP-470): 3.5 fold

SMILES: Cc1nc(-c2ccc(Cl)cn2)nc(NC[C@@H](NCCCCc2ccccc2)c2ccccc2)c1Cl [compound 3]
solubility at highest doses tested [9]: No solubility problems
cytotoxicity ([2]; 10 μM, most cells floating after 24 hours): severe cytotoxicity

SMILES: Cc1nc(-c2ccccn2)nc(NCCNc2ccc(C(F)(F)F)cn2)c1Cl [compound 4]
solubility at highest doses tested [9]: No solubility problems

increase in potency against HsMetAP1 with Co(II) compared with 10a (HsMetAP1 [1]): 19 fold
SMILES: c1ccc(-c2nc(N3CCOCC3)c3ccccc3n2)nc1 [compound 17]
